Source: BindingDB's records for doi:10.1021/jm801503n (Burnham Institute For Medical Research, 2009)

Legend:
[1] = biological target: T1, Mitogen-activated protein kinase 8 (Homo sapiens, UniProt P45983); assay: In Vitro Kinase Assay (LanthaScreen Kinase Assay)
Procedure: Compounds were tested for their ability to inhibit JNK1 phosphorylation of ATF2 in the Time-Resolved Fluorescence Resonance Energy Transfer (TR-FRET) based LanthaScreen kinase assay (Invitrogen). The signal was measured at 520/495 nm emission ratio on a fluorescence plate reader (Victor 2, Perkin-Elmer).

[2] = biological target: T1, Mitogen-activated protein kinase 8; assay: DELFIA Assay (Dissociation Enhanced Lanthanide Fluoro-Immuno Assay)

T1 sequence (P45983 whole entry): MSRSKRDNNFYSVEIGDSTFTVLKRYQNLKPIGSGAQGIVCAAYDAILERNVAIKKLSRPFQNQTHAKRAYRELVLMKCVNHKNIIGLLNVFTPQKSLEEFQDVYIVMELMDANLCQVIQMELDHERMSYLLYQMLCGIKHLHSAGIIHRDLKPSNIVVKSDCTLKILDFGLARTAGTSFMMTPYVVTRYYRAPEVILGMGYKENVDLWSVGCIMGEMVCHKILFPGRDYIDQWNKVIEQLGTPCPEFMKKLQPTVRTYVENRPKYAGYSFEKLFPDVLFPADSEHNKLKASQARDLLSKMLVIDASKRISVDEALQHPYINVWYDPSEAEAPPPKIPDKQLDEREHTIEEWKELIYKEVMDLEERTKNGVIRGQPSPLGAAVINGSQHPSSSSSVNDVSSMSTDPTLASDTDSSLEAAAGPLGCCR

With `c1ccc(CSc2nnc(SCc3ccccc3)s2)cc1` [dithioether 1,3,4-thiadiazole, 8a] the IC50 [1] was > 100 µM.

For `COc1ccc(OC)c(-n2c(Sc3ncc([N+](=O)[O-])s3)n[nH]c2=O)c1` [triazole, 3h], the IC50 [2] was 2400 nM and the IC50 ([2]; pH 7.8, 0 °C) was 85 nM.

`O=c1[nH]nc(Sc2ncc([N+](=O)[O-])s2)n1-c1cccc(F)c1` [triazole, 3l] gave an IC50 [2] of 84000 nM and an IC50 ([2]; pH 7.8, 0 °C) of 626 nM.

In the case of `O=[N+]([O-])c1cnc(Sc2nnc(O)n2-c2ccc(C(F)(F)F)cc2)s1` [triazole, 3p], the IC50 [2] is reported as 3000 nM and the IC50 ([2]; pH 7.8, 0 °C) is reported as 75 nM.

With `O=[N+]([O-])c1cnc(Sc2nnc(O)n2-c2cccc3ccccc23)s1` [triazole, 3g] the IC50 [2] was 2700 nM and the IC50 ([2]; pH 7.8, 0 °C) was 48 nM.

In the case of `Fc1ccc(CSc2nnc(SCc3ccc(F)cc3)s2)cc1` [dithioether 1,3,4-thiadiazole, 8b], the IC50 [1] is reported as > 100 µM.

`O=[N+]([O-])c1cnc(Sc2nnc(O)n2-c2cccc(C(F)(F)F)c2)s1` [triazole, 3o] gave an IC50 [2] of 2900 nM and an IC50 ([2]; pH 7.8, 0 °C) of 160 nM.

With `O=c1[nH]nc(Sc2ncc([N+](=O)[O-])s2)n1-c1ccc([N+](=O)[O-])cc1` [triazole, 3j] the IC50 [2] was 400 nM and the IC50 ([2]; pH 7.8, 0 °C) was 86 nM.

In the case of `O=[N+]([O-])c1ccc(CSc2nnc(SCc3ccc([N+](=O)[O-])cc3)s2)cc1` [dithioether 1,3,4-thiadiazole, 8e], the IC50 [1] is reported as > 100 µM.

With `O=c1[nH]nc(Sc2ncc([N+](=O)[O-])s2)n1-c1ccc(F)cc1` [triazole, 3c] the IC50 [2] was 1800 nM and the IC50 ([2]; pH 7.8, 0 °C) was 225 nM.

With `CC(C)(C)c1ccc(-n2c(O)nnc2Sc2ncc([N+](=O)[O-])s2)cc1` [triazole, 3a] the IC50 [2] was 39000 nM and the IC50 ([2]; pH 7.8, 0 °C) was 95 nM.

Work on `O=[N+]([O-])c1cnc(Sc2nnc(-c3cccc4ccccc34)n2Cc2ccco2)s1` [triazole, 7d] yielded an IC50 [2] of 13600 nM and an IC50 ([2]; pH 7.8, 0 °C) of 57 nM.

For `O=[N+]([O-])c1cnc(Sc2nnc(Sc3ncc([N+](=O)[O-])s3)s2)s1` [dithioether 1,3,4-thiadiazole, 8f], the IC50 [2] was 187 nM and the IC50 [1] was 0.8 µM.

With `O=[N+]([O-])c1cnc(Sc2nnc(-c3ccncc3)n2-c2ccccc2)s1` [triazole, 7f] the IC50 [2] was 3100 nM and the IC50 ([2]; pH 7.8, 0 °C) was 122 nM.

With `Nc1nnc(Sc2ncc([N+](=O)[O-])s2)s1` [2-amino-1,3,4-thiadiazole, 9] the IC50 [2] was 239 nM and the IC50 [1] was 0.7 µM.

Compound `O=C(Nc1nnc(Sc2ncc([N+](=O)[O-])s2)s1)c1ccc(F)cc1` [2-amino-1,3,4-thiadiazole, 10] has an IC50 [1] of 84 µM.

With `COc1ccc(-n2c(Sc3ncc([N+](=O)[O-])s3)n[nH]c2=O)cc1OC` [triazole, 3f] the IC50 [2] was 1000 nM and the IC50 ([2]; pH 7.8, 0 °C) was 43 nM.

In the case of `O=C(O)c1cnc(Sc2nnc(Sc3ncc(C(=O)O)s3)s2)s1` [dithioether 1,3,4-thiadiazole, 8g], the IC50 [2] is reported as 100 nM and the IC50 [1] is reported as 84 µM.

For `Cn1c(Cc2nc(-c3cnccn3)[n-][o+]2)nnc1Sc1ncc([N+](=O)[O-])s1` [triazole, 7g], the IC50 [2] was 100000 nM and the IC50 ([2]; pH 7.8, 0 °C) was 131 nM.

With `COc1cc(OC)cc(-n2c(Sc3ncc([N+](=O)[O-])s3)n[nH]c2=O)c1` [triazole, 3e] the IC50 [2] was 4300 nM and the IC50 ([2]; pH 7.8, 0 °C) was 105 nM.

For `COc1ccc(CSc2nnc(SCc3ccc(OC)cc3)s2)cc1` [dithioether 1,3,4-thiadiazole, 8c], the IC50 [1] was > 100 µM.

Work on `O=c1[nH]nc(Sc2ncc([N+](=O)[O-])s2)n1-c1ccc(OC(F)(F)F)cc1` [triazole, 3i] yielded an IC50 [2] of 2000 nM and an IC50 ([2]; pH 7.8, 0 °C) of 130 nM.

In the case of `O=[N+]([O-])c1cnc(Sc2nnc(O)n2C2CCCCC2)s1` [triazole, 3q], the IC50 [2] is reported as 25000 nM and the IC50 ([2]; pH 7.8, 0 °C) is reported as 56 nM.

For `O=[N+]([O-])c1cccc(CSc2nnc(SCc3cccc([N+](=O)[O-])c3)s2)c1` [dithioether 1,3,4-thiadiazole, 8d], the IC50 [1] was > 100 µM.

`Cn1cccc1-c1nnc(Sc2ncc([N+](=O)[O-])s2)n1-c1ccc(Cl)cc1Cl` [triazole, 7b] gave an IC50 [2] of 2000 nM and an IC50 ([2]; pH 7.8, 0 °C) of 83 nM.

Work on `O=[N+]([O-])c1cnc(Sc2nnc(O)n2-c2ccc(F)c(F)c2)s1` [triazole, 3k] yielded an IC50 [2] of 6600 nM.

Work on `COc1cccc(-n2c(O)nnc2Sc2ncc([N+](=O)[O-])s2)c1` [triazole, 3m] yielded an IC50 [2] of 16000 nM and an IC50 ([2]; pH 7.8, 0 °C) of 118 nM.
